Drawing on patent publication US11866518B2, “Bicyclic peptide ligands specific for TSLP” (BicycleTx Limited, priority 2020, dated 2024), this text covers Kd for 13 compounds.

*1 amine or outer side, *2 acyl side, *3 side chain or, on linkers, in order; H or OH if unused. Where a SMILES comes first, the peptide text is derived from it. Bridges are numbered along the chain shown (N, C = ends). [ ]: non-standard residue; d: D form. TATA = O=C(CC[*:1])N1CN(C(=O)CC[*:2])CN(C(=O)CC[*:3])C1; Orn = NCCC[C@H](N)C(=O)O

For this test, the target named is TSLP (Homo sapiens, UniProt Q969D9). Description: Human TSLP Surface Plasmon Resonance (SPR) binding assay. As to conditions: biotinylated human TSLP immobilized on streptavidin chip; 20° C.; steady-state or kinetic 1:1 fit; read-out: hTSLP SPR Kd. Details: The resulting construct spCD33-6×HN-TEV-hTSLP(29-159)-Avi; 6xHN tag with TEV site (N, cleaved yes); made in house; host or cells: Expi293F cells.
Chain of TSLP (Q969D9 29-159): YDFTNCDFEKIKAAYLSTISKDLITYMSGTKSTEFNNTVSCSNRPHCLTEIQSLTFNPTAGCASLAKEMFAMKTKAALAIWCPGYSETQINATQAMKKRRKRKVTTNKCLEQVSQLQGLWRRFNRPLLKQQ
Consider `CC(C)C[C@@H]1NC(=O)[C@H](CO)NC(=O)[C@@H]2CCCN2C(=O)[C@@H](NC(=O)[C@H](C)N)CSCCC(=O)N2CN3CN(C2)C(=O)CCSC[C@H](NC(=O)[C@H]([C@@H](C)O)NC(=O)[C@H](Cc2c[nH]c4ccccc24)NC(=O)[C@@H]2CCCN2C(=O)[C@H](CC(=O)O)NC1=O)C(=O)N[C@@H](CCC(N)=O)C(=O)N[C@@H](CO)C(=O)N[C@@H](Cc1c[nH]c2ccccc12)C(=O)N[C@@H](Cc1ccc(O)cc1)C(=O)N[C@@H](CCC(=O)O)C(=O)N[C@H](C(=O)N[C@@H](C)C(N)=O)CSCCC3=O` [Example 162, A-(SEQ ID NO: 120)-A], for which the Kd amounted to 1500 nM. Under `CC(C)C[C@@H]1NC(=O)[C@H](CC(=O)O)NC(=O)[C@H](CCCCN)NC(=O)[C@@H](NC(=O)[C@H](C)N)CSCCC(=O)N2CN3CN(C2)C(=O)CCSC[C@H](NC(=O)[C@H]([C@@H](C)O)NC(=O)[C@H](Cc2c[nH]c4ccccc24)NC(=O)[C@@H]2CCCN2C(=O)[C@H](CC(=O)O)NC1=O)C(=O)N[C@@H](CO)C(=O)N[C@@H](CO)C(=O)N[C@@H](Cc1c[nH]c2ccccc12)C(=O)N[C@@H](Cc1c[nH]c2ccccc12)C(=O)N[C@@H](CCC(=O)O)C(=O)N[C@H](C(=O)N[C@@H](C)C(=O)N1CCC[C@H]1C(=O)N[C@@H](CC(N)=O)C(N)=O)CSCCC3=O` [Example 167, A-(SEQ ID NO: 125)-APN] (H-ACKDLDPWTCSSWWECAPN-NH2; linker 2-10-16 via TATA; N-terminus assumed) stands 170 nM.

On to `CC(C)C[C@@H]1NC(=O)[C@H](Cc2c[nH]c3ccccc23)NC(=O)[C@H](Cc2c[nH]c3ccccc23)NC(=O)[C@H](CCC(=O)O)NC(=O)[C@H](CCC(=O)O)NC(=O)[C@@H]2CSCCC(=O)N3CN(CN(C3)C(=O)CCSC[C@@H](C(=O)N[C@@H](C)C(=O)N[C@@H](Cc3c[nH]cn3)C(=O)N3CCC[C@H]3C(N)=O)NC1=O)C(=O)CCSC[C@H](NC(=O)[C@H](C)N)C(=O)N[C@@H](CCCNC(=N)N)C(=O)N[C@@H](CC(=O)O)C(=O)N[C@@H](CC(C)C)C(=O)N[C@@H](CC(=O)O)C(=O)N1CCC[C@H]1C(=O)N[C@@H](Cc1c[nH]c3ccccc13)C(=O)N[C@@H]([C@@H](C)O)C(=O)N2` [Example 170, A-(SEQ ID NO: 128)-AHP] (H-ACRDLDPWTCEEWWLCAHP-NH2; linker 2-10-16 via TATA; N-terminus and C-terminus assumed), for which the Kd turned out to be 170 nM.

`CC(C)C[C@@H]1NC(=O)[C@H](Cc2c[nH]c3ccccc23)NC(=O)[C@H](Cc2c[nH]c3ccccc23)NC(=O)[C@H](CO)NC(=O)[C@H](CO)NC(=O)[C@@H]2CSCCC(=O)N3CN(CN(C3)C(=O)CCSC[C@H](NC(=O)[C@@H](NC(=O)[C@H](CC(=O)O)NC(=O)[C@H](CCCNC(=N)N)NC(=O)[C@H](CCC(N)=O)NC(=O)[C@H](Cc3ccc(O)cc3)NC(=O)[C@@H](N)CCC(=O)O)C(C)C)C(=O)N[C@@H](CCCNC(=N)N)C(=O)N[C@@H](CC(=O)O)C(=O)N[C@@H](CC(C)C)C(=O)N[C@@H](CC(=O)O)C(=O)N3CCC[C@H]3C(=O)N[C@@H](Cc3c[nH]c4ccccc34)C(=O)N[C@@H]([C@@H](C)O)C(=O)N2)C(=O)CCSC[C@@H](C(=O)N[C@@H](C)C(N)=O)NC1=O` [Example 173, EYQRDV-(SEQ ID NO: 122)-A]: the Kd amounted to 77 nM. In the case of `CC(C)C[C@@H]1NC(=O)[C@H](Cc2c[nH]c3ccccc23)NC(=O)[C@H](Cc2c[nH]c3ccccc23)NC(=O)[C@H](CO)NC(=O)[C@H](CO)NC(=O)[C@@H]2CSCCC(=O)N3CN(CN(C3)C(=O)CCSC[C@@H](C(=O)N[C@@H](CO)C(=O)N[C@@H](CCC(=O)O)C(=O)N[C@@H](CO)C(=O)N[C@H](C(=O)N[C@@H](Cc3c[nH]cn3)C(=O)N[C@H](C(=O)N[C@@H](C)C(N)=O)[C@@H](C)O)C(C)C)NC1=O)C(=O)CCSC[C@H](NC(=O)[C@H](C)N)C(=O)N[C@@H](CCCNC(=N)N)C(=O)N[C@@H](CC(=O)O)C(=O)N[C@@H](CC(C)C)C(=O)N[C@@H](CC(=O)O)C(=O)N1CCC[C@H]1C(=O)N[C@@H](Cc1c[nH]c3ccccc13)C(=O)N[C@@H]([C@@H](C)O)C(=O)N2` [Example 175, A-(SEQ ID NO: 122)-SESVHTA], the Kd turned out to be 240 nM.

For `CC(C)C[C@@H]1NC(=O)[C@H](Cc2c[nH]c3ccccc23)NC(=O)[C@H](Cc2c[nH]c3ccccc23)NC(=O)[C@H](CO)NC(=O)[C@H](CO)NC(=O)[C@@H]2CSCCC(=O)N3CN(CN(C3)C(=O)CCSC[C@@H](C(=O)N[C@@H](CCCCN)C(=O)N3CCC[C@H]3C(=O)N[C@@H](CC(=O)O)C(=O)N[C@@H](Cc3c[nH]cn3)C(=O)N[C@H](C(=O)N[C@@H](CC(=O)O)C(=O)N[C@@H](C)C(N)=O)C(C)C)NC1=O)C(=O)CCSC[C@H](NC(=O)[C@H](C)N)C(=O)N[C@@H](CCCNC(=N)N)C(=O)N[C@@H](CC(=O)O)C(=O)N[C@@H](CC(C)C)C(=O)N[C@@H](CC(=O)O)C(=O)N1CCC[C@H]1C(=O)N[C@@H](Cc1c[nH]c3ccccc13)C(=O)N[C@@H]([C@@H](C)O)C(=O)N2` [Example 177, A-(SEQ ID NO: 122)-KPDHVDA], the Kd stood at 580 nM.

In the case of `CC(C)C[C@@H]1NC(=O)[C@H](Cc2c[nH]c3ccccc23)NC(=O)[C@H](Cc2c[nH]c3ccccc23)NC(=O)[C@H]([C@@H](C)O)NC(=O)[C@H](CCC(=O)O)NC(=O)[C@@H]2CSCCC(=O)N3CN(CN(C3)C(=O)CCSC[C@H](N)C(=O)N[C@@H](CCCCN)C(=O)N[C@@H](CCC(=O)O)C(=O)N[C@@H](CC(C)C)C(=O)N[C@@H](CC(=O)O)C(=O)N3CCC[C@H]3C(=O)N[C@@H](Cc3c[nH]c4ccccc34)C(=O)N[C@@H]([C@@H](C)O)C(=O)N2)C(=O)CCSC[C@@H](C(N)=O)NC1=O` [Example 179, (SEQ ID NO: 130)] (H-CKELDPWTCETWWLC-NH2; linker 1-9-15 via TATA), the Kd was 360 nM. Under `CC(C)C[C@@H]1NC(=O)[C@H](Cc2c[nH]c3ccccc23)NC(=O)[C@H](Cc2c[nH]c3ccccc23)NC(=O)[C@H]([C@@H](C)O)NC(=O)[C@H](CCC(=O)O)NC(=O)[C@@H]2CSCCC(=O)N3CN(CN(C3)C(=O)CCSC[C@H](N)C(=O)N[C@@H](CCCN)C(=O)N[C@@H](CCC(=O)O)C(=O)N[C@@H](CC(C)C)C(=O)N[C@@H](CC(=O)O)C(=O)N3CCC[C@H]3C(=O)N[C@@H](Cc3c[nH]c4ccccc34)C(=O)N[C@@H]([C@@H](C)O)C(=O)N2)C(=O)CCSC[C@@H](C(N)=O)NC1=O` [Example 180, (SEQ ID NO: 131)] (H-C[Orn]ELDPWTCETWWLC-NH2; linker 1-9-15 via TATA; N-terminus and C-terminus assumed) stands 300 nM; under `CC(C)C[C@@H]1NC(=O)[C@H](Cc2c[nH]c3ccccc23)NC(=O)[C@H](Cc2c[nH]c3ccccc23)NC(=O)[C@H]([C@@H](C)O)NC(=O)[C@H](CCC(=O)O)NC(=O)[C@@H]2CSCCC(=O)N3CN(CN(C3)C(=O)CCSC[C@H](N)C(=O)N[C@@H](CCC(N)=O)C(=O)N[C@@H](CCC(=O)O)C(=O)N[C@@H](CC(C)C)C(=O)N[C@@H](CC(=O)O)C(=O)N3CCC[C@H]3C(=O)N[C@@H](Cc3c[nH]c4ccccc34)C(=O)N[C@@H]([C@@H](C)O)C(=O)N2)C(=O)CCSC[C@@H](C(N)=O)NC1=O` [Example 181, (SEQ ID NO: 132)] (H-CQELDPWTCETWWLC-NH2; linker 1-9-15 via TATA; N-terminus and C-terminus assumed), 310 nM; under `CC(C)C[C@@H]1NC(=O)[C@H](Cc2c[nH]c3ccccc23)NC(=O)[C@H](Cc2c[nH]c3ccccc23)NC(=O)[C@H]([C@@H](C)O)NC(=O)[C@H](CCC(=O)O)NC(=O)[C@@H]2CSCCC(=O)N3CN(CN(C3)C(=O)CCSC[C@H](N)C(=O)N[C@@H]([C@@H](C)O)C(=O)N[C@@H](CCC(=O)O)C(=O)N[C@@H](CC(C)C)C(=O)N[C@@H](CC(=O)O)C(=O)N3CC(F)(F)C[C@H]3C(=O)N[C@@H](Cc3c[nH]c4ccccc34)C(=O)N[C@@H]([C@@H](C)O)C(=O)N2)C(=O)CCSC[C@@H](C(N)=O)NC1=O` [Example 182, (SEQ ID NO: 133)], 1300 nM. Under `CC(C)C[C@@H]1NC(=O)[C@H](Cc2c[nH]c3ccccc23)NC(=O)[C@H](Cc2c[nH]c3ccccc23)NC(=O)[C@H](CC(=O)O)NC(=O)[C@H](CCC(=O)O)NC(=O)[C@@H]2CSCCC(=O)N3CN(CN(C3)C(=O)CCSC[C@@H](C(=O)N[C@@H](C)C(N)=O)NC1=O)C(=O)CCSC[C@H](NC(=O)[C@H](C)N)C(=O)N[C@@H](C(C)C)C(=O)N[C@@H](CC(=O)O)C(=O)N[C@@H](CC(C)C)C(=O)N[C@@H](CC(=O)O)C(=O)N1CCC[C@H]1C(=O)N[C@@H](Cc1c[nH]c3ccccc13)C(=O)N[C@@H](CO)C(=O)N2` [Example 183, A-(SEQ ID NO: 134)-A] (H-ACVDLDPWSCEDWWLCA-NH2; linker 2-10-16 via TATA; N-terminus and C-terminus assumed) stands 330 nM. As for `CC(C)C[C@@H]1NC(=O)[C@H](Cc2c[nH]c3ccccc23)NC(=O)[C@H](Cc2c[nH]c3ccccc23)NC(=O)[C@H]([C@@H](C)O)NC(=O)[C@H](CCC(=O)O)NC(=O)[C@@H]2CSCCC(=O)N3CN(CN(C3)C(=O)CCSC[C@H](N)C(=O)N[C@@H]([C@@H](C)O)C(=O)N[C@@H](CCC(=O)O)C(=O)N[C@@H](CC(C)C)C(=O)N[C@@H](CC(=O)O)C(=O)N3CCC[C@H]3C(=O)N[C@@H](Cc3c[nH]c4ccccc34)C(=O)N[C@@H]([C@@H](C)O)C(=O)N2)C(=O)CCSC[C@@H](C(N)=O)NC1=O` [Example 185, (SEQ ID NO: 121)], the figure is 260 nM. Take `CC(C)C[C@@H]1NC(=O)[C@H](Cc2c[nH]c3ccccc23)NC(=O)[C@H](Cc2c[nH]c3ccccc23)NC(=O)[C@H](CC(=O)O)NC(=O)[C@@H]2CCCN2C(=O)[C@@H]2CSCCC(=O)N3CN(CN(C3)C(=O)CCSC[C@H](NC(=O)[C@H](CC(C)C)NC(=O)[C@H](CC(=O)O)NC(=O)[C@@H](N)CCCNC(=N)N)C(=O)N[C@@H]([C@@H](C)O)C(=O)N[C@@H](CC(=O)O)C(=O)N[C@@H](CC(C)C)C(=O)N[C@@H](CC(=O)O)C(=O)N3CCC[C@H]3C(=O)N[C@@H](Cc3c[nH]c4ccccc34)C(=O)N[C@@H]([C@@H](C)O)C(=O)N2)C(=O)CCSC[C@@H](C(=O)N[C@@H](C)C(N)=O)NC1=O` [Example 189, RDL-(SEQ ID NO: 138)-A] (H-RDLCTDLDPWTCPDWWLCA-NH2; linker 4-12-18 via TATA; N-terminus and C-terminus assumed): the Kd is 310 nM.
